Source: the supplement of paper PMC10307832

Legend:
Assay in all cases: relative viability (nuclei count vs DMSO), 5 days (fraction); higher = more cells survive
201T = test system: 201T
Procedure, shortened: (§1)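 Relative viability was taken as the ratio of nuclei in treated wells to nuclei in vehicle wells. Lung cancer cell lines in 1536-well plates received compounds by pin tool one day after seeding, either one drug alone or a fixed anchor-drug dose plus five library-drug doses (not always all listed) in √10 steps. Nuclei were counted on 4× images after 5 days of treatment, and values are medians of duplicate plates.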

BEN = test system: BEN
Procedure, shortened: as §1

COR-L 105 = test system: COR-L 105
Procedure, shortened: as §1

EMC-BAC-2 = test system: EMC-BAC-2
Procedure, shortened: as §1

H3255 = test system: H3255
Procedure, shortened: as §1

HARA = test system: HARA
Procedure, shortened: as §1

HCC-78 = test system: HCC-78
Procedure, shortened: as §1

HOP-62 = test system: HOP-62
Procedure, shortened: as §1

LC-2-ad = test system: LC-2-ad
Procedure, shortened: as §1

LOU-NH91 = test system: LOU-NH91
Procedure, shortened: as §1

LU99A = test system: LU99A
Procedure, shortened: as §1

LXF-289 = test system: LXF-289
Procedure, shortened: as §1

NCI-H1395 = test system: NCI-H1395
Procedure, shortened: as §1

NCI-H1563 = test system: NCI-H1563
Procedure, shortened: as §1

NCI-H1993 = test system: NCI-H1993
Procedure, shortened: as §1

NCI-H2087 = test system: NCI-H2087
Procedure, shortened: as §1

NCI-H2126 = test system: NCI-H2126
Procedure, shortened: as §1

NCI-H2170 = test system: NCI-H2170
Procedure, shortened: as §1

NCI-H650 = test system: NCI-H650
Procedure, shortened: as §1

RERF-LC-KJ = test system: RERF-LC-KJ
Procedure, shortened: as §1

SK-MES-1 = test system: SK-MES-1
Procedure, shortened: as §1

SW 900 = test system: SW 900
Procedure, shortened: as §1

UMC-11 = test system: UMC-11
Procedure, shortened: as §1

## Cc1cn(-c2cc(NC(=O)c3ccc(C)c(Nc4nccc(-c5cccnc5)n4)c3)cc(C(F)(F)F)c2)cn1 [Nilotinib] + N=C(N)NC(=N)NCCc1ccccc1 [Phenformin] (partner 250 µM)
201T; first compound 0.003162 µM
  relative viability: 0.48
201T; first compound 0.01 µM
  relative viability: 0.454
201T; first compound 0.03162 µM
  relative viability: 0.477
201T; first compound 0.1 µM
  relative viability: 0.491
BEN; first compound 0.001 µM
  relative viability: 0.264
BEN; first compound 0.003162 µM
  relative viability: 0.292
BEN; first compound 0.01 µM
  relative viability: 0.237
BEN; first compound 0.03162 µM
  relative viability: 0.259
BEN; first compound 0.1 µM
  relative viability: 0.289
COR-L 105; first compound 0.001 µM
  relative viability: 0.428
COR-L 105; first compound 0.003162 µM
  relative viability: 0.47
COR-L 105; first compound 0.01 µM
  relative viability: 0.581
COR-L 105; first compound 0.03162 µM
  relative viability: 0.409
COR-L 105; first compound 0.1 µM
  relative viability: 0.438
EMC-BAC-2; first compound 0.001 µM
  relative viability: 0.474
EMC-BAC-2; first compound 0.003162 µM
  relative viability: 0.553
EMC-BAC-2; first compound 0.01 µM
  relative viability: 0.491
EMC-BAC-2; first compound 0.03162 µM
  relative viability: 0.44
EMC-BAC-2; first compound 0.1 µM
  relative viability: 0.484
H3255; first compound 0.001 µM
  relative viability: 0.382
H3255; first compound 0.003162 µM
  relative viability: 0.303
H3255; first compound 0.03162 µM
  relative viability: 0.403
H3255; first compound 0.1 µM
  relative viability: 0.407
HARA; first compound 0.001 µM
  relative viability: 0.402
HARA; first compound 0.003162 µM
  relative viability: 0.555
HARA; first compound 0.01 µM
  relative viability: 0.613
HARA; first compound 0.03162 µM
  relative viability: 0.29
HARA; first compound 0.1 µM
  relative viability: 0.322
HCC-78; first compound 0.001 µM
  relative viability: 0.786
HCC-78; first compound 0.003162 µM
  relative viability: 0.643
HCC-78; first compound 0.01 µM
  relative viability: 0.706
HCC-78; first compound 0.03162 µM
  relative viability: 0.637
HCC-78; first compound 0.1 µM
  relative viability: 0.636
HOP-62; first compound 0.001 µM
  relative viability: 0.512
HOP-62; first compound 0.003162 µM
  relative viability: 0.706
HOP-62; first compound 0.01 µM
  relative viability: 0.771
HOP-62; first compound 0.03162 µM
  relative viability: 0.444
HOP-62; first compound 0.1 µM
  relative viability: 0.441
LC-2-ad; first compound 0.001 µM
  relative viability: 0.647
LC-2-ad; first compound 0.003162 µM
  relative viability: 0.659
LC-2-ad; first compound 0.01 µM
  relative viability: 0.557
LC-2-ad; first compound 0.03162 µM
  relative viability: 0.609
LC-2-ad; first compound 0.1 µM
  relative viability: 0.562
LOU-NH91; first compound 0.001 µM
  relative viability: 0.752
LOU-NH91; first compound 0.003162 µM
  relative viability: 0.736
LOU-NH91; first compound 0.01 µM
  relative viability: 0.861
LOU-NH91; first compound 0.03162 µM
  relative viability: 0.663
LOU-NH91; first compound 0.1 µM
  relative viability: 0.75
LU99A; first compound 0.001 µM
  relative viability: 0.697
LU99A; first compound 0.003162 µM
  relative viability: 0.907
LU99A; first compound 0.01 µM
  relative viability: 0.798
LU99A; first compound 0.03162 µM
  relative viability: 0.611
LU99A; first compound 0.1 µM
  relative viability: 0.483
LXF-289; first compound 0.001 µM
  relative viability: 0.545
LXF-289; first compound 0.003162 µM
  relative viability: 0.562
LXF-289; first compound 0.01 µM
  relative viability: 0.558
LXF-289; first compound 0.03162 µM
  relative viability: 0.506
LXF-289; first compound 0.1 µM
  relative viability: 0.454
NCI-H1395; first compound 0.001 µM
  relative viability: 0.453
NCI-H1395; first compound 0.003162 µM
  relative viability: 0.403
NCI-H1395; first compound 0.01 µM
  relative viability: 0.49
NCI-H1395; first compound 0.03162 µM
  relative viability: 0.43
NCI-H1395; first compound 0.1 µM
  relative viability: 0.415
NCI-H1563; first compound 0.001 µM
  relative viability: 0.635
NCI-H1563; first compound 0.003162 µM
  relative viability: 0.689
NCI-H1563; first compound 0.01 µM
  relative viability: 0.609
NCI-H1563; first compound 0.03162 µM
  relative viability: 0.635
NCI-H1563; first compound 0.1 µM
  relative viability: 0.61
NCI-H1993; first compound 0.001 µM
  relative viability: 0.554
NCI-H1993; first compound 0.003162 µM
  relative viability: 0.55
NCI-H1993; first compound 0.01 µM
  relative viability: 0.522
NCI-H1993; first compound 0.03162 µM
  relative viability: 0.482
NCI-H1993; first compound 0.1 µM
  relative viability: 0.701
NCI-H2087; first compound 0.001 µM
  relative viability: 0.403
NCI-H2087; first compound 0.003162 µM
  relative viability: 0.518
NCI-H2087; first compound 0.01 µM
  relative viability: 0.519
NCI-H2087; first compound 0.03162 µM
  relative viability: 0.301
NCI-H2087; first compound 0.1 µM
  relative viability: 0.215
NCI-H2126; first compound 0.001 µM
  relative viability: 0.546
NCI-H2126; first compound 0.003162 µM
  relative viability: 0.535
NCI-H2126; first compound 0.01 µM
  relative viability: 0.538
NCI-H2126; first compound 0.03162 µM
  relative viability: 0.534
NCI-H2126; first compound 0.1 µM
  relative viability: 0.562
NCI-H2170; first compound 0.001 µM
  relative viability: 0.408
NCI-H2170; first compound 0.003162 µM
  relative viability: 0.432
NCI-H2170; first compound 0.01 µM
  relative viability: 0.409
NCI-H2170; first compound 0.03162 µM
  relative viability: 0.394
NCI-H2170; first compound 0.1 µM
  relative viability: 0.363
NCI-H650; first compound 0.001 µM
  relative viability: 0.444
NCI-H650; first compound 0.003162 µM
  relative viability: 0.428
NCI-H650; first compound 0.01 µM
  relative viability: 0.447
NCI-H650; first compound 0.03162 µM
  relative viability: 0.38
NCI-H650; first compound 0.1 µM
  relative viability: 0.397
RERF-LC-KJ; first compound 0.001 µM
  relative viability: 0.406
RERF-LC-KJ; first compound 0.003162 µM
  relative viability: 0.449
RERF-LC-KJ; first compound 0.01 µM
  relative viability: 0.43
RERF-LC-KJ; first compound 0.03162 µM
  relative viability: 0.344
RERF-LC-KJ; first compound 0.1 µM
  relative viability: 0.453
SK-MES-1; first compound 0.001 µM
  relative viability: 0.614
SK-MES-1; first compound 0.003162 µM
  relative viability: 0.734
SK-MES-1; first compound 0.01 µM
  relative viability: 0.74
SK-MES-1; first compound 0.03162 µM
  relative viability: 0.566
SK-MES-1; first compound 0.1 µM
  relative viability: 0.554
SW 900; first compound 0.001 µM
  relative viability: 0.605
SW 900; first compound 0.003162 µM
  relative viability: 0.634
SW 900; first compound 0.01 µM
  relative viability: 0.612
SW 900; first compound 0.03162 µM
  relative viability: 0.44
SW 900; first compound 0.1 µM
  relative viability: 0.408
UMC-11; first compound 0.001 µM
  relative viability: 0.312
UMC-11; first compound 0.003162 µM
  relative viability: 0.344
UMC-11; first compound 0.01 µM
  relative viability: 0.324
UMC-11; first compound 0.1 µM
  relative viability: 0.217
